Measurements as given in PMC6684085, “Intragenic antimicrobial peptides (IAPs) from human proteins with potent antimicrobial and anti-inflammatory activity” (PLoS ONE, 2019).
Converted amounts (≈) assume the structure as drawn. “Also recorded” adds a separate entry of the source. Ends that are not written are not given here.

Columns and labels:
Candida albicans 90028 = experiment: microbe, parasite or virus in culture; assay type: cell-based; conditions: ATCC90028, ATCC 90028, peptides 0.5 to 256 μM, 100 μL, 96-well, no cells seen by optical microscopy, three biological repetitions with 2 technical replicates, mean ± SD, read-out: Minimum inhibitory concentration (μM ± SD) C. albicans
Procedure: (§1) Protocols M7-A10 [46], M27-A3 [47] and M38-A2 [48] from Clinical & Laboratory Standards Institute (CLSI) were used to test the susceptibility of bacteria, yeasts and filamentous fungi to the Hs IAPs. Briefly, Hs IAPs ranging from 0.5 to 256 μM were tested against microorganisms in a final volume of 100μL. Tests were performed in polystyrene flat-bottom 96 wells microplates and each test consisted of three biological repetitions with 2 technical replicates each. The minimum inhibitory concentration (MIC) was defined as the concentration that no cells/hyphae were detected when visualized by optical microscopy. ATCC reference strains: Candida albicans 90028, Staphylococcus aureus 25923, Pseudomonas aeruginosa 27853, Trichophyton rubrum 28189, Staphylococcus epidermidis 12228.

human red blood cells = assay type: cell-based
Procedure: (§2) The cytotoxicity of Hs IAPs was performed using human red blood cells in strict accordance with relevant guidelines and regulations (Ethical committee–UnB # 1.939.989 as described elsewhere. Cytotoxic effect of IAPs was evaluated by MTT assay and flow cytometry analysis using murine peritoneal macrophages from C57BL/6 mice or a BALB/cN-derived macrophages (J774A.1) cell line. For cell viability assays using MTT, murine peritoneal macrophages from C57BL/6 mice were plated in triplicate wells in 96-well plates at a density of 1.0 × 10^5 cells per well and stimulated or not with different concentrations of Hs IAPs (0.1, 1 and 10 μM) and incubated for 24h. After that, 20μl of a solution of 3-(4,5-Dimethyl-thiazol-2-yl)-2,5-diphenyl-tetrazolium bromide (MTT, Sigma) was added to each well (5 mg/ml of MTT in phosphate buffered saline). The plates were incubated at 37°C for 3 hours and then processed as previously described. Cell death was analysed by annexin V-FITC/PI staining followed by flow cytometry analysis. Mouse BALB/cN macrophage (J774A.1) cell line was acquired from ATCC (number TIB-67) and cultured in Dulbecco’s Modified Eagle’s Medium (DMEM) (Life) supplemented with 10% heat inactivated foetal bovine serum (Life) and 1% antibiotic solution (100 IU/mL penicillin/100 μg/mL streptomycin, Life) at 37°C, 5% CO2, in a humidified atmosphere. J774A.1 cells were seeded into 96-well culture plates in DMEM culture medium for 2 h at 37°C and 5% CO2 in a humid atmosphere at a density of 1.0 × 10^5 cells, and stimulated or not with different concentrations of Hs IAPs (0.1, 1 and 10 μM). The plates were incubated for 24 h, washed in PBS, and resuspended in 100 μL of binding buffer (10 mM HEPES/NaOH pH 7.4, 140 mM NaCl, ad 2.5 mM CaCl2). Cells were then treated with 2 μL of annexin-V FITC in Aqueous buffered solution containing BSA and ≤0.09% sodium azide (BD Pharmingen) and 2 μL of propidium iodide (PI, 50 μg/mL) for 15 min in the dark at room temperature. Next, 100 μL binding buffer was added and a total of 20,000 events were collected per sample in flow cytometer (BD LSRFortessa).

[1] = system: murine peritoneal macrophages from C57BL/6 mice; experiment: MTT reduction assay in primary macrophages; assay type: cell-based, mouse; conditions: 24 h incubation, triplicate wells (S1 Fig)
Procedure: as §2, with “J774A.1 cells were seeded into 96-well culture plates in DMEM culture medium for 2 h at 37°C and 5% CO2 in a humid atmosphere at a density of 1.0 × 10^5 cells, and stimulated or not with different concentrations of Hs IAPs (0.1, 1 and 10 μM). The plates were incubated for 24 h, washed in PBS, and resuspended in 100 μL of binding buffer (10 mM HEPES/NaOH pH 7.4, 140 mM NaCl, ad 2.5 mM CaCl2). Cells were then treated with 2 μL of annexin-V FITC in Aqueous buffered solution containing BSA and ≤0.09% sodium azide (BD Pharmingen) and 2 μL of propidium iodide (PI, 50 μg/mL) for 15 min in the dark at room temperature. Next, 100 μL binding buffer was added and a total of 20,000 events were collected per sample in flow cytometer (BD LSRFortessa).” left out

[2] = system: Pseudomonas aeruginosa 27853; experiment: microbe, parasite or virus in culture; assay type: cell-based; conditions: ATCC27853, ATCC 27853, peptides 0.5 to 256 μM, 100 μL, 96-well, three biological repetitions with 2 technical replicates, mean ± SD, read-out: Minimum inhibitory concentration (μM ± SD) P. aeruginosa
Procedure: as §1

[3] = system: Staphylococcus aureus 25923; experiment: microbe, parasite or virus in culture; assay type: cell-based; conditions: ATCC 25923, peptides 0.5 to 256 μM, 100 μL, 96-well, three biological repetitions with 2 technical replicates, mean ± SD
Procedure: as §1

[4] = system: Staphylococcus epidermidis 12228; experiment: microbe, parasite or virus in culture; assay type: cell-based; conditions: ATCC 12228, peptides 0.5 to 256 μM, 100 μL, 96-well, three biological repetitions with 2 technical replicates, mean ± SD
Procedure: as §1

[5] = system: murine peritoneal macrophages from C57BL/6 mice; experiment: LPS-induced TNF-α release by ELISA; assay type: cell-based, mouse; conditions: macrophages primed with 500 ng/mL LPS for 4 h, then peptide for 24 h, Hs02 at 0.1, 1 and 10 μM, DS01 at 1 and 10 μM
Procedure: Fig 5 TNF-α secretion and lipid droplet biogenesis evaluation. a. Murine peritoneal macrophages from C57BL/6 mice were pre-treated or not with LPS (500 ng/ml) for 4h and then stimulated or not with Hs IAPs (0.1, 1.0 and 10 μM), incubated for 24h and TNF-α levels measured by ELISA b. In parallel, murine peritoneal macrophages from C57BL/6 mice were pre-treated or not with LPS (500 ng/ml) for 4h and then stimulated or not with Hs IAPs (0.1 μM), incubated for 24h and lipid droplets were quantitated by flow cytometry (B). The values are expressed as mean ±SEM. * p<0.05 and **** p<0.0001 versus DMEM control group. […] The digits of 121, 119, 364 and 122 are best readings.
The modulation of pro-inflammatory cytokine TNF-α secretion induced by IAPs was evaluated by ELISA. […] Supernatant TNF-α concentration was detected by ELISA with a R&D Systems (USA) kit. […] Plates were read after adding the stop solution at 450nm using SpectraMax M3spectrophotometer (Molecular Devices).
Supplementary file pone.0220656.s004.tif: S3 Fig TNF-α release in murine macrophages. Murine peritoneal macrophages from C57BL/6 mice were pre-treated or not with LPS (500 ng/ml) for 4h and then stimulated or not with the AMP DS01 (10, and 1 μM), incubated for 24h and TNF-α levels measured by ELISA. The values are expressed as mean ±SEM. * p<0.05 and **** p<0.0001 versus DMEM control group. […]

[6] = system: mouse BALB/cN macrophage (J774A.1) cell line; assay type: cell-based; conditions: for Viability of J774A.1 macrophages versus DMEM untreated control: 24 h exposure, peptide at 0.1, 1 and 10 μM, flow cytometry, 20,000 events/sample, p<0.05
Procedure: (§3) Fig 4 a. Cytotoxicity evaluation in the mouse BALB/cN macrophage (J774A.1) cell line after exposure for 24 h at 0.1, 1.0 and 10 μM concentrations. DMEM was used as a negative control. Cells were analyzed by flow cytometry (20,000 events/sample). b. Evaluation of the cell death mechanism mediated by Hs02 in J774A.1 cells after exposure for 24 h at 0.1, 1.0 and 10 μM concentrations using annexin-V FITC (apoptosis marker) and propidium iodide (PI, necrosis marker) staining. Cells were analyzed by flow cytometry (20,000 events/sample). The values are expressed as mean ± SEM. * p<0.05 and **** p<0.0001 versus DMEM untreated control group. # p<0.05 versus apoptosis staining for each respective group.
as §2, with “J774A.1 cells were seeded into 96-well culture plates in DMEM culture medium for 2 h at 37°C and 5% CO2 in a humid atmosphere at a density of 1.0 × 10^5 cells, and stimulated or not with different concentrations of Hs IAPs (0.1, 1 and 10 μM). The plates were incubated for 24 h, washed in PBS, and resuspended in 100 μL of binding buffer (10 mM HEPES/NaOH pH 7.4, 140 mM NaCl, ad 2.5 mM CaCl2). Cells were then treated with 2 μL of annexin-V FITC in Aqueous buffered solution containing BSA and ≤0.09% sodium azide (BD Pharmingen) and 2 μL of propidium iodide (PI, 50 μg/mL) for 15 min in the dark at room temperature. Next, 100 μL binding buffer was added and a total of 20,000 events were collected per sample in flow cytometer (BD LSRFortessa).” left out

[7] = system: mouse BALB/cN macrophage (J774A.1) cell line; experiment: Annexin-V FITC / propidium iodide staining by flow cytometry; assay type: cell-based; conditions: 24 h exposure at 0.1, 1.0 and 10 μM; flow cytometry, 20,000 events/sample
Procedure: as §3
The cytotoxicity of Hs IAPs was performed using human red blood cells in strict accordance with relevant guidelines and regulations (Ethical committee–UnB # 1.939.989 as described elsewhere. Cytotoxic effect of IAPs was evaluated by MTT assay and flow cytometry analysis using murine peritoneal macrophages from C57BL/6 mice or a BALB/cN-derived macrophages (J774A.1) cell line. For cell viability assays using MTT, murine peritoneal macrophages from C57BL/6 mice were plated in triplicate wells in 96-well plates at a density of 1.0 × 10^5 cells per well and stimulated or not with different concentrations of Hs IAPs (0.1, 1 and 10 μM) and incubated for 24h. […]

OC(Cn1cncn1)(Cn1cncn1)c1ccc(F)cc1F [Fluconazol]
MIC (Candida albicans 90028): 1.63 µM (≈ 0.499 µg/mL)

FLREFHKWIERVVGWLGKVF-NH2 [Hs03]
Hemolytic activity SC50 (human red blood cells): > 128 µM | Concentration that reduced the viability of peritoneal macrophages to 50% [1]: approximately 10 μM

CNC(C)C1CCC(N)C(OC2C(N)CC(N)C(OC3OCC(C)(O)C(NC)C3O)C2O)O1 (centres unmarked) [Gentamicin]
MIC [2]: 0.13 µM (≈ 0.0621 µg/mL) | MIC ([3]; Staphylococcus aureus, ATCC25923, read-out: Minimum inhibitory concentration (μM ± SD) S. aureus): 0.26 µM (≈ 0.124 µg/mL) | MIC ([4]; Staphylococcus epidermidis, ATCC12228, read-out: Minimum inhibitory concentration (μM ± SD) S. epidermidis): 0.26 µM (≈ 0.124 µg/mL)

GFKDLLKGAAKALVKTVLF-NH2 [Asc-8]
Hemolytic activity SC50 (human red blood cells): 32 µM

GLWSTIKQKGKEAAIAAAKAAGQAALGAL-NH2 [DS01]
Hemolytic activity SC50 (human red blood cells): > 128 µM | Peptide concentration that inhibits LPS-induced release of TNF-α [5]: > 10 µM

LFNNYITAALKLLEKLYKV-NH2 [Hs04]
Hemolytic activity SC50 (human red blood cells): 64 µM | Concentration that reduced the viability of peritoneal macrophages to 50% [1]: approximately 10 μM

LKMLGMLFHNIRNILKTV-NH2 [Hs01]
Hemolytic activity SC50 (human red blood cells): > 128 µM

KWAVRIIRKFIKGFIS-NH2 [Hs02]
Hemolytic activity SC50 (human red blood cells): > 128 µM | Viability of J774A.1 macrophages versus DMEM untreated control [6]: did not cause significant (p<0.05) reduction in the viability | Concentration tolerated by the J774A.1 macrophage cell line ([6]; flow cytometry, 24 h, 0.1, 1 and 10 μM tested): ≥ 10 µM | Apoptosis (annexin-V FITC) or necrosis (PI) in J774A.1 cells versus DMEM control [7]: did not present significant apoptosis or necrosis; also recorded: No significant apoptosis or necrosis

OO [hydrogen peroxide (H2O2), hydrogen peroxide]
Viability of J774A.1 macrophages versus DMEM untreated control [6]: decreased significantly (p<0.05) the cell viability

CC1(C)S[C@@H]2[C@H](NC(=O)[C@H](N)c3ccccc3)C(=O)N2[C@H]1C(=O)O [Ampicilin]
Minimum inhibitory concentration (μM ± SD) S. aureus [3]: 5.38 ± 0.0 µM (≈ 1.88 µg/mL) | Minimum inhibitory concentration (μM ± SD) S. epidermidis [4]: 43.10 ± 0.0 µM (≈ 15.1 µg/mL)

C[C@@H]1[C@H](O)[C@@H](C)/C=C/C=C/C=C/C=C/C=C/C=C/C=C/[C@H](O[C@@H]2O[C@H](C)[C@@H](O)[C@H](N)[C@@H]2O)C[C@@H]2O[C@](O)(C[C@@H](O)C[C@@H](O)[C@H](O)CC[C@@H](O)C[C@@H](O)CC(=O)O[C@H]1C)C[C@H](O)[C@H]2C(=O)O [Amphotericin b]
MIC (Candida albicans 90028): 0.27 µM (≈ 0.25 µg/mL)
